Source: publication PMC11062894, “Protein-based bandpass filters for controlling cellular signaling with chemical inputs” (Nature Chemical Biology, 2023)

Tested on: HEK293T cells
Type: cell-based
Conditions: 10 µM A-1155463
Excerpt: drug controlled switches. […]
drug competition assay. This assay is designed to test if the drug of interest can specifically disrupt the interaction between LD3 and BclXL/Bcl2. The drug-receptors (Bcl2, BclXL) are immobilized on the different channels of the sensor chip, then the binding sites are saturated with LD3. While the flux of A-1155463 (red) flows through the sensor chip, the loss of signal is used to monitor the dissociation of the protein complex. b) Drug effects on reporter protein expression of HEK293T cells. HEK293T cells were transfected with a plasmid for constitutive SEAP production and incubated with indicated drugs for 24 hours. SEAP quantifications were performed to measure the protein production and WST-8 was used to test the cell proliferation. Each bar represents the mean of six biological replicates ± s.d., overlaid with a scatter dot plot of the original data points. […]
was added after 24 hours of drug incubation, and measured for absorbance at 450 nm 4 hours later. […]
production of HEK293T cells. […] SEAP quantifications were performed to measure the protein production and WST-8 was used to test the cell proliferation. For cell proliferation assay, WST-8 was added after 24 hours of drug incubation, and measured its absorbance at 450 nm 4 hours later. […]
ranging from 1 pM to 1 µM were added 12 hours post-transfection, then SEAP was measured 24 hours […]

SMILES: CN(C)CC#Cc1ccc(OCCCc2sc(N3CCc4cccc(C(=O)Nc5nc6ccccc6s5)c4C3)nc2C(=O)O)c(F)c1 [A-1155463]
- effect on cell survival: does not perturb
- effect on reporter gene expression: does not perturb
